We go through four compounds from patent US10570179B2, “Substituted urea depsipeptide analogs as activators of the CLPP endopeptidase” (priority 2016, dated 2020).

Assay [1] deals with T1, S. aureus ClpP (Sa-ClpP) (Staphylococcus aureus, UniProt Q2G036).
T1 construct: made in house; host or cells: E. coli BL21 (DE3)
Nature of the assay: Casein-BODIPY digestion assay (ClpP activation). Type of assay: biochemical. As for the experimental part:
The compounds were assayed in a casein digestion assay in order to determine their effect on ClpP activation. Briefly, the assay was carried out using S. aureus ClpP (“Sa-ClpP”) overexpressed in E. coli BL21 (DE3) and purified in a two-step process. Purity of the protein was assessed through SDS PAGE analysis. EC50 evaluations were conducted in triplicate in a 20 μl assay format using a method adapted from Maurizi et al. (Methods Enzymol. (1994) 244:314-331). Each well contained 10 μM saClpP, 25 μg/ml BODIPY FL casein (Invitrogen Corporation, San Diego, Calif.), and test compound in concentrations ranging between 0-1000 μM in assay buffer (50 mM Tris pH 8, 200 mM KCl, and 1 mM TCEP). The reaction took place at 37° C. Fluorescence (excitation 485 nm; emission 528 nm) was measured in five minute intervals over a 45 min period using a BioTek HT fluorescence microplate reader (BioTek Instruments, Inc., Winooski, Vt.). Velocity of each reaction was calculated and data was fit to a dose response curve using GraphPad Prism® software (GraphPad Software, Inc., La Jolla, Calif.). EC50 is the effective concentration of compound which causes 50% activation of S. aureus ClpP in the foregoing BODIPY FL casein assay.
Alternatively, the assay was carried out using EnzCheck Protease Assay (Molecular Probes, Catalog # E6638). The assay was performed in black 384 well, flat bottom, low volume plates (Greiner Bio-One, Monroe, N.C., catalog #784076). 10 μL of Tris.HCl buffer, pH 8.0 with 0.01% Triton X-100 was pipetted into each well using a Well-Mate (Thermo Scientific, Waltham, Mass.). 0.4 μL test compounds or controls (2% DMSO v/v) were added to each well using a Biomek FX liquid handling robot (Beckman Coulter, Indianapolis, Ind.). After addition of test compounds and controls, 10 μL of master mix containing 2 μM Sa-ClpP and 2 μM substrate (Bodipy-FL labeled casein) in Tris.HCl buffer, pH 8.0 with 0.01% (v/v) Triton X-100, was pipetted into each well. All assays were performed in triplicate, under linear velocity conditions. Increase in fluorescent signal following activation of Sa-ClpP by test compounds and controls was measured over time period of 30 mins using filters with excitation at 485±15 nm and emission at 520±25 nm on a PHERAstar FS Multilabel reader (BMG, Cary, N.C.). Instrument gains and enzyme linear velocity conditions were determined and validated using ADEP4, a known Sa-ClpP activator. Data analysis was done by measuring rate of casein degradation over time (slopes). Computed degradation rates (slopes) were normalized to positive (ADEP4) or negative (DMSO) controls. Using nonlinear regression curve fitting EC50 values and % activation were determined using the equation “log [agonist] vs. Response-variable slope (four parameters)-symmetrical” in the program Prism 6 (GraphPad Software, La Jolla, Calif. USA, www.graphpad.com).

The test system of assay [2] is MRSA NRS70. The experiment in a line: Minimal inhibitory concentration, microbroth dilution. It counts as cell-based. As to conditions: Staphylococcus aureus. As for the experimental part:
(§1) Minimal inhibitory concentrations (“MICs”) were determined using the microbroth dilution method according to Clinical Laboratory Standards Institute (CLSI; National, C.F. C. L. S., Methods for Dilution Antimicrobial Susceptibility Tests for Bacteria Grow aerobically-Seventh Edition: Approved Standard M7-A7, CLSI, Wayne, Pa., USA, 2008) and were read by visual inspection. Two fold serial dilutions of test compound in 100 μL of the appropriate broth media were first prepared in 96-well round bottom microtiter plates (Nalgene Nunc International, Rochester, N.Y., USA). An equivalent volume (100 μL) of bacterial broth inocula containing approximately 10^5 bacterial cfu/mL was added to each well to give final concentrations of test compound starting at 200 μM. The plates were then incubated aerobically at 37° C. All strains were incubated overnight. After incubations, in all cases the MIC was recorded as the lowest concentration of drug that prevented bacterial growth. The bacterial strains for which MIC was determined as described in Table 4.
(In general: In broth dilution the organism is exposed to a series of concentrations in liquid medium.)

Assay [3] relates to E. faecails. The description is as above. Type of assay: cell-based. To be noted: Enterococcus faecalis. As for the experimental part:
as §1

For assay [4], the system named is S. aureus ATCC 29213. Described as above. It counts as cell-based. To be noted: Staphylococcus aureus. How it is done: as §1
Assay [5] concerns S. aureus USA 300. The assay is described as above. Type of assay: cell-based. As to conditions: Staphylococcus aureus. How it is done: as §1
The subject of assay [6] is S. aureus ΔClpP. Described as above. Type of assay: cell-based, Staphylococcus aureus. As to conditions: MIC; ClpP inactivated. How it is done:
as §1

Converted amounts (≈) assume the structure as drawn. Where two headings read alike, the source gives them in different places. Numbered stars: 1 amine (or outer) side, 2 acyl side, 3 side chain; on linkers, the order of the positions; unused ones are H or OH. Bridge positions count the residues as written; N and C are the ends. Square brackets hold non-standard residues; d marks the D form. Peptide text beside a SMILES is read from it. * marks the point of attachment. Phe(3-Me) = Cc1cccc(C[C@H](N)C(=O)O)c1; NH(4-Cl-2-F-phenyl) = Fc1cc(Cl)ccc1N*; Pro(4R-Me) = C[C@H]1CN[C@H](C(=O)O)C1; Hyp = O=C(O)[C@@H]1C[C@@H](O)CN1; NH(4-Cl-phenyl) = Clc1ccc(N*)cc1; aThr = C[C@H](O)[C@H](N)C(=O)O; NH(2-F-phenyl) = Fc1ccccc1N*; Pip = O=C(O)[C@@H]1CCCCN1; X7 = Clc1ccc(N*)c(Cl)c1; CO = O=C([*:1])[*:2]

T1 sequence (Q2G036 whole entry): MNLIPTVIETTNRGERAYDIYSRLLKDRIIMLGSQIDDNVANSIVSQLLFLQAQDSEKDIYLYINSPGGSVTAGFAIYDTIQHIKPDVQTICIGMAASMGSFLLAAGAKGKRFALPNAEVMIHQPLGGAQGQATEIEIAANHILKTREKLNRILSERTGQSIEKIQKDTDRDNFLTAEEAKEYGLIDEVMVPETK

Broadly, the EC50 is the concentration giving half of the maximal effect. Read a high EC50 as a less potent agent. Consider `Cc1cccc(C[C@H](NC(=O)Nc2ccc(Cl)cc2Cl)C(=O)N[C@@H]2C(=O)N3C[C@H](O)C[C@H]3C(=O)N3CCCC[C@H]3C(=O)N[C@@H](C)C(=O)N3C[C@H](C)C[C@H]3C(=O)O[C@H]2C)c1` [Compound 78, (S)-2-(3-(2,4-DICHLOROPHENYL)UREIDO)-N-((2R,6S,8AS,14AS,16R,20S,21S,23AS)-16-HYDROXY-2,6,21-TRIMETHYL-5,8,14,19,23-PENTAOXOOCTADECAHYDRO-1H,5H,14H,19H-PYRIDO[2,1-I]DIPYRROLO[2,1-C:2′,1′-L][1]OXA[4,7,10,13]TETRAAZACYCLOHEXADECIN-20-YL)-3-(M-TOLYL)PROPANAMIDE] ({X7-CO}-[Phe(3-Me)][aThr][Hyp][Pip]A[Pro(4R-Me)]; ester 2-C), for which the EC50 in assay [1] was 0.33 ± 0.1 µM.
Compound `Cc1cccc(C[C@H](NC(=O)Nc2ccc(Cl)cc2)C(=O)N[C@@H]2C(=O)N3C[C@H](O)C[C@H]3C(=O)N3CCCC[C@H]3C(=O)N[C@@H](C)C(=O)N3CCC[C@H]3C(=O)O[C@H]2C)c1` [Compound 59, (S)-2-(3-(4-CHLOROPHENYL)UREIDO)-N-((6S,8AS,14AS,16R,20S,21S,23AS)-16-HYDROXY-6,21-DIMETHYL-5,8,14,19,23-PENTAOXOOCTADECAHYDRO-1H,5H,14H,19H-PYRIDO[2,1-I]DIPYRROLO[2,1-C:2′,1′-L][1]OXA[4,7,10,13]TETRAAZACYCLOHEXADECIN-20-YL)-3-(M-TOLYL)PROPANAMIDE] ({NH(4-Cl-phenyl)-CO}-[Phe(3-Me)][aThr][Hyp][Pip]AP; ester 2-C) came in with an EC50 in assay [1] of 0.81 ± 0.5 µM. Also, the MIC in assay [2] (read-out: Minimal Inhibitory Concentrations (μM) MRSA NRS70, MIC) was 1.25 µM (≈ 1.01 µg/mL); in assay [3] (read-out: Minimal Inhibitory Concentrations (μM) E. faecails, MIC) it was 5 µM (≈ 4.04 µg/mL); in assay [4] (ATCC29213, read-out: Minimal Inhibitory Concentrations (μM) S. aureus ATCC 29213, MIC), 2.5 µM (≈ 2.02 µg/mL); in assay [5] (USA300, read-out: Minimal Inhibitory Concentrations (μM) S. aureus USA 300, MIC), 1.25 µM (≈ 1.01 µg/mL).
On to `Cc1cccc(C[C@H](NC(=O)Nc2ccccc2F)C(=O)N[C@@H]2C(=O)N3C[C@H](O)C[C@H]3C(=O)N3CCCC[C@H]3C(=O)N[C@@H](C)C(=O)N3C[C@H](C)C[C@H]3C(=O)O[C@H]2C)c1` [Compound 80, (S)-2-(3-(2-FLUOROPHENYL)UREIDO)-N-((2R,6S,8AS,14AS,16R,20S,21S,23AS)-16-HYDROXY-2,6,21-TRIMETHYL-5,8,14,19,23-PENTAOXOOCTADECAHYDRO-1H,5H,14H,19H-PYRIDO[2,1-I]DIPYRROLO[2,1-C:2′,1′-L][1]OXA[4,7,10,13]TETRAAZACYCLOHEXADECIN-20-YL)-3-(M-TOLYL)PROPANAMIDE] ({NH(2-F-phenyl)-CO}-[Phe(3-Me)][aThr][Hyp][Pip]A[Pro(4R-Me)]; ester 2-C), for which the EC50 in assay [1] was 0.59 ± 0.4 µM.
Take `Cc1cccc(C[C@H](NC(=O)Nc2ccc(Cl)cc2F)C(=O)N[C@@H]2C(=O)N3C[C@H](O)C[C@H]3C(=O)N3CCCC[C@H]3C(=O)N[C@@H](C)C(=O)N3CCC[C@H]3C(=O)O[C@H]2C)c1` [Compound 50, (S)-2-(3-(4-CHLORO-2-FLUOROPHENYL)UREIDO)-N-((6S,8AS,14AS,16R,20S,21S,23AS)-16-HYDROXY-6,21-DIMETHYL-5,8,14,19,23-PENTAOXOOCTADECAHYDRO-1H,5H,14H,19H-PYRIDO[2,1-I]DIPYRROLO[2,1-C:2′,1′-L][1]OXA[4,7,10,13]TETRAAZACYCLOHEXADECIN-20-YL)-3-(M-TOLYL)PROPANAMIDE] ({NH(4-Cl-2-F-phenyl)-CO}-[Phe(3-Me)][aThr][Hyp][Pip]AP; ester 2-C): in assay [6], the “Minimal Inhibitory Concentrations (μM) S. aureus ΔClpP” value was over 20 µM. Besides, the MIC in assay [2] (MIC, read-out: Minimal Inhibitory Concentrations (μM) MRSA NRS70) was 0.313 µM (≈ 0.259 µg/mL); in assay [3] (MIC, read-out: Minimal Inhibitory Concentrations (μM) E. faecails), 2.5 µM (≈ 2.07 µg/mL); in assay [4] (ATCC29213, MIC, read-out: Minimal Inhibitory Concentrations (μM) S. aureus ATCC 29213), 0.625 µM (≈ 0.516 µg/mL); in assay [5] (USA300, MIC, read-out: Minimal Inhibitory Concentrations (μM) S. aureus USA 300), 1.25 µM (≈ 1.03 µg/mL).
